Experimental data reported in paper PMC8333425, “Discovery of a dual Ras and ARF6 inhibitor from a GPCR endocytosis screen” (Nature Communications, 2021).
Values joined by “and” are separate entries in the source; they are usually repeats but may differ in a detail not shown here. Equal entries are not always repeated. “Also recorded” adds a separate entry of the source.

How the values were obtained:
HEK293 cells = conditions: Barbadin 100 µM; cited from earlier work
MEK1 = test: Western blot of ERK1/2 phosphorylation induced by MEK1 (MEK1-WT / MEK1-DD); type: cell-based, human
Protocol: HEK293SL cells (10^5 cells per well) were seeded in a poly-L-lysine-coated six-well plate and transiently transfected with 3 μg Flag-AT1R, HA-B2R or HA-β2AR and/or 500 ng Flag-MEK1-WT, Flag-MEK1-DD, Flag-BRAF-WT, Flag-BRAF-V600E, Flag-K-Ras-WT, Flag-K-Ras-G12V, HA-ARF6-WT, or HA-ARF6-T27N. Gαq/11 KO and βarr1/2 KO cells were seeded onto 100 mm dishes at a density of 10^6 cells per dish. Next day, cells were transfected with 3 μg AT1R alone or along with 500 ng of β-arrestin2 using PEI. After 18 h of transfection, cells were detached and re-seeded onto poly-L-lysine coated 12-well plates (~1.5–2 × 10^5cells/well) for subsequent experiments. Forty-eight hours post transfection, in a 37 °C water bath, cells were serum-starved for 30 min, pretreated with DMSO (0.1%) or compound 21/Rasarfin (50 µM or at indicated concentrations) for 30 min, then stimulated or not with the indicated ligand [AngII (1 µM), BK (1 µM), Iso (10 µM) or EGF (100 ng/ml)] at indicated times. Cells were put on ice, washed with PBS and solubilized in 2x laemmli buffer (250 mM Tris–HCl pH 6.8, 2% SDS (w/v), 10% glycerol (v/v), 0.01% bromophenol blue (w/v) and 5% β-mercaptoethanol (v/v)) by heating at 65 °C for 15 min. Lysates were resolved on 10 or 14% SDS-PAGE, transferred to nitrocellulose membranes and immunoblotted for p-ERK1/2, ERK1/2, p-Akt, Akt, HA, Myc, β-actin or FLAG. ImageLab 5.2 software was used to quantify the digital blots as fold of the phosphorylated protein over total protein, which were then normalized as indicated in the figure legends. Uncropped immunoblots are provided in the Source Data file.

[1] = molecular target: T1, K-Ras Y32A, Y40A, Y32A/Y40A (Homo sapiens, UniProt P01116, Y40A); test: Ras BRET sensor in cells overexpressing K-Ras mutants (Y32A, Y40A, Y32A/Y40A) and AT1R; type: cell-based; conditions: Rasarfin 50 μM, K-Ras Y40A
T1 construct: expressed in transfected cells; host or cells: HEK293SL
Text: Because Tyr32 and Tyr40, located on the switch I domain of Ras, are critical for stabilizing Rasarfin binding through interactions with both the chlorine and isopropyl moiety (Fig. 7a, c), we reasoned that substituting them for Ala residues would negatively impact Rasarfin’s inhibitory action on Ras. […] Because we wanted to assess the inhibitory action of Rasarfin over different Ras subtypes, we mutated the two tyrosine residues to an alanine in K-Ras (Y32A, Y40A, and Y32A/Y40A mutants) within the same Rasarfin binding site found in H-Ras (Lys^5-Thr^74). This domain and residues are perfectly conserved among the Ras family members[44],[45]. WT K-Ras and K-Ras mutants were overexpressed along with AT1R in cells and AngII-mediated activation of Ras was assessed using the Ras BRET sensor (Supplementary Fig. 11a).
HEK293SL cells were seeded at a density of 7.5 × 10^5 cells per 100-mm dish and 24 h later, transiently transfected as such. For receptor internalization experiments, cells were transfected with 0.12 μg AT1R-RlucII, B2R-RlucII, or β2AR-RlucII and 0.48 μg of either rGFP-CAAX (to assess removal from the PM) or rGFP-FYVE (to assess accumulation in the endosomes). For β-arrestin recruitment assays, cells were transfected with 0.48 μg of receptor-YFP along with 0.12 μg of β-arrestin-RlucII. For β-arrestin/AP-2 binding experiments, cells were transfected with 1 μg Flag-AT1R, 1 μg β2-Adaptin-YFP, and 0.12 μg β-arrestin2-RlucII. For G protein activation, cells were transfected with 3 μg of sp-Flag-AT1R along with either 4.5 μg of the Gαq-polycistronic BRET sensor or 0.24 μg of the Gαi3-RlucII and 0.6 μg of GFP10-Gγ2 and Gβ1 sensors or 0.12 μg PKN-RBD-RlucII and 0.48 μg of rGFP-CAAX. For PKC activation, cells were transfected with 3 μg of sp-Flag-AT1R and 0.18 μg of the PKC sensor. For GTPase activation experiments, cells were transfected with 1 μg Flag-AT1R, 0.48 μg of rGFP-CAAX, and either 0.12 μg of GGA3-PBD-RlucII, PAK-CRIB-RlucII or Raf-RBD-RlucII. For biosensor validation experiments, cells were additionally transfected with 500 ng Flag-K-Ras-WT, Flag-K-Ras-G12V, Flag-K-Ras-SOS-CAAX, HA-ARF6-WT, HA-ARF6-T27N, Myc-Rac1-WT, Myc-Rac1-Q61L or Myc-Rac1-T17N. For PI3K/Akt activation experiments, cells were transfected with 0.48 μg of rGFP-CAAX and 0.12 μg of Akt (PH)-RlucII. After 18 h of transfection, the media was replaced and cells were divided for subsequent experiments. Cells were detached and seeded onto poly-L-ornithine-coated 96-well flat white bottom plates (BrandTech Scientific) at a density of 2.5 × 10^4 cells per well in media. The next day, cells were washed once with Tyrode’s buffer (140 mM NaCl, 2.7 mM KCl, 1 mM CaCl2, 12 mM NaHCO3, 5.6 mM D-glucose, 0.5 mM MgCl2, 0.37 mM NaH2PO4, 25 mM HEPES, pH 7.4) and left in Tyrode’s buffer. For kinetics of β-arrestin recruitment or β-arrestin binding to receptor and AP-2 experiments, cells were serum starved for 30 min, pretreated with 21 (50 µM) or Barbadin (100 µM) for 30 min, stimulated with 100 nM AngII or 1 µM BK and BRET signals were monitored at indicated times using a Victor X Light plate reader (PerkinElmer). Coelenterazine H (final concentration of 5 µM) was added 3–5 min prior to BRET measurements. Filter set was 460/80 nm and 535/30 nm for detecting the RlucII Renilla luciferase (donor) and YFP (acceptor) light emissions, respectively. The BRET ratio was determined by calculating the ratio of the light emitted by YFP over the light emitted by the RlucII. For G protein activation, cells were serum starved, pretreated with compounds for 30 min, stimulated with 100 nM AngII for 2 min (Gαq, Gαi3, and Rho sensors) or 5 min (PKC sensor). For the kinetics of GTPase and PI3K/Akt activation, cells were serum starved, pretreated with 21 (50 µM) or Wortmannin (200 nM) for 30 min, stimulated with ligand (100 nM AngII or 100 ng/ml EGF) and BRET signals were monitored at indicated times. […]

SMILES | toxicity to HEK293 cells (flat, cobblestone appearance retained) (HEK293 cells) | ERK1/2 activation induced by overexpression of MEK1-DD (MEK1; 50 μM) | Predicted (LS) mean diff. DMSO vs. compound (Bonferroni's multiple comparisons test) (MEK1; Flag-MEK1 DD) | ERK1/2 phosphorylation relative to mock (S_Fig.4c) (MEK1; Flag-MEK1 DD, listed as Comp 21) | Predicted (LS) mean diff. DMSO vs. compound (Bonferroni's multiple comparisons test) (MEK1; Flag-MEK1 WT) | ERK1/2 phosphorylation relative to mock (S_Fig.4c) (MEK1; Flag-MEK1 WT, listed as Comp 21) | ERK1/2 phosphorylation relative to mock (S_Fig.4c) (MEK1; mock) | Predicted (LS) mean diff. DMSO vs. compound (Bonferroni's multiple comparisons test) (MEK1; mock) | AngII-promoted BRET [1] | AngII-promoted BRET, Mean Diff. DMSO - Rasarfin ([1]; Bonferroni's multiple comparisons test)
Nn1cnc2scc(-c3ccc(Cc4ccccc4)cc3)c2c1=O [Barbadin, reference compound] | non-toxic to cells; also recorded: nontoxic |  |  |  |  |  |  |  |  | 
CC(C)C(=O)N1CCN(c2ccc(NC(=O)c3cc4ccccc4o3)cc2Cl)CC1 [Compound 21] |  | nor did it block ERK1/2 activation | 0.4193 | 4.057 and 4.133 and 4.072 and 3.9273 | 0.04596 | 1.754 and 1.134 and 1.2368 | 1 | 0 | 0.072 and 0.05667 and 0.08167 and 0.04433 | 0.011
